Measurements: patent publication US4068074A, “Cephalosporin derivatives having at the 3-position of the cephem ring a heterocyclic thiomethyl group with a carboxy or sulfo group and at the 7-position of the cephem ring an α-heterocylic acylaminophenyl-acetamide group” (priority 1974, dated 1978)
Values after ≈ are worked out from the molar mass of the structure shown. Read-outs that look alike come from different tables or passages of the source.

How the values were obtained:
Type in all cases: cell-based
[1] = system: Pseudomonas aeruginosa 99 (Gentamycin resistant); test: MIC against bacteria (Table I), strain (5); settings: (5) Pseudomonas aeruginosa 99 (Gentamycin resistant); read-out: MIC
Text: (§1) Now, for illustrating the excellent pharmacological effects of the compounds of this invention, the values of MIC (γ/ml.) of the compounds against various bacteria are shown in Table 1, in which the compounds of this invention used are shown by example numbers.
(5) Pseudomonas aeruginosa 99 (Gentamycin resistant)

[2] = system: Bacillus subtilis ATCC 6633; test: MIC against bacteria (Table I), strain (14); settings: ATCC6633
Text: as §1
(14) Bacillus subtilis ATCC 6633

Shigella sonnei II 37148 = test: MIC against bacteria (Table I), strain (12); settings: II37148
Text: as §1

[3] = system: Psuedomonas ovalis IMA 1002; test: MIC against bacteria (Table I), strain (6); settings: (6) Psuedomonas ovalis IMA 1002; read-out: MIC
Text: as §1
(6) Psuedomonas ovalis IMA 1002

Salmonella typhi H901 W = test: MIC against bacteria (Table I), strain (9); settings: Salmonella enterica, TYPHI
Text: as §1
(9) Salmonella typhi H901 W

[4] = system: Staphylococcus aureus 209P; test: MIC against bacteria (Table I), strain (16)
Text: as §1
(16) Staphylococcus aureus 209P

Salmonella enteritidis = test: MIC against bacteria (Table I), strain (10); settings: Salmonella enterica; (10) Salmonella enteritidis; read-out: MIC
Text: as §1
(10) Salmonella enteritidis

[5] = system: Klebsiella pneumoniae ATCC 10031; test: MIC against bacteria (Table I), strain (8); settings: ATCC10031
Text: as §1
(8) Klebsiella pneumoniae ATCC 10031

[6] = system: Staphylococcus Shimanishi; test: MIC against bacteria (Table I), strain (17)
Text: as §1
(17) Staphylococcus Shimanishi

[7] = system: Escherichia coli kauffmann 0-1; test: MIC against bacteria (Table I), strain (7)
Text: as §1
(7) Escherichia coli kauffmann 0-1

[8] = system: Bacillus megatherium 10778; test: MIC against bacteria (Table I), strain (13); settings: (13) Bacillus megatherium 10778; read-out: MIC
Text: as §1

Proteus vulgaris OXK US = test: MIC against bacteria (Table I), strain (1); settings: (1) Proteus vulgaris OXK US; read-out: MIC
Text: as §1
(1) Proteus vulgaris OXK US

[9] = system: Shigella flexneri 2a 1675; test: MIC against bacteria (Table I), strain (11); settings: 2A1675
Text: as §1

[10] = system: Pseudomonas aeruginosa ATCC 8689; test: MIC against bacteria (Table I), strain (4); settings: ATCC8689
Text: as §1
(4) Pseudomonas aeruginosa ATCC 8689

[11] = system: Proteus mirabilis IXM OM-19; test: MIC against bacteria (Table I), strain (3); settings: IXMOM19; (3) Proteus mirabilis IXM OM-19; read-out: MIC
Text: as §1
(3) Proteus mirabilis IXM OM-19

[12] = system: Micrococcus flavus ATCC 10240; test: MIC against bacteria (Table I), strain (15); settings: ATCC10240
Text: as §1
(15) Micrococcus flavus ATCC 10240

Proteus vulgaris 0X 19US = test: MIC against bacteria (Table I), strain (2); settings: 0X19US
Text: as §1
(2) Proteus vulgaris 0X 19US

Staphylococcus Onuma = test: MIC against bacteria (Table I), strain (18)
Text: as §1
(18) Staphylococcus Onuma

[13] = (14) Bacillus subtilis ATCC 6633, read-out: MIC
[14] = (12) Shigella sonnei II 37148, read-out: MIC
[15] = (16) Staphylococcus aureus 209P, read-out: MIC
[16] = (8) Klebsiella pneumoniae ATCC 10031, read-out: MIC
[17] = (17) Staphylococcus Shimanishi, read-out: MIC
[18] = (11) Shigella flexneri 2a 1675, read-out: MIC
[19] = (4) Pseudomonas aeruginosa ATCC 8689, read-out: MIC
[20] = (18) Staphylococcus Onuma, read-out: MIC
[21] = (15) Micrococcus flavus ATCC 10240, read-out: MIC
[22] = (2) Proteus vulgaris 0X 19US, read-out: MIC

Structure (SMILES)	MIC [1]	MIC [2, 13]	MIC (Shigella sonnei II 37148; [14])	MIC [3]	MIC (Salmonella typhi H901 W)	MIC [4, 15]	MIC (Salmonella enteritidis)	MIC [5, 16]	MIC [6, 17]	MIC ([7]; Escherichia coli)	MIC [8]	MIC (Proteus vulgaris OXK US)	MIC [9, 18]	MIC [11]	MIC ([12]; Micrococcus flavus)	MIC ([4]; Staphylococcus aureus, 209P)	MIC [10, 19]	MIC (Staphylococcus Onuma; [20])	MIC [12, 21]	MIC (Proteus vulgaris 0X 19US; [22])	further results
O=C(O)C1=C(CSc2nnc(C(=O)O)s2)CS[C@@H]2[C@H](NC(=O)[C@H](NC(=O)c3cnccc3O)c3ccccc3)C(=O)N12 [Example 11, 7-[D-α-(4-hydroxynicoytinoylamido)-α-phenylacetamido]-3-(5-carboxy-1,3,4-thiadiazol-2-yl)thiomethyl-Δ^3-cephem-4-carboxylic acid]	12.5 µg/mL (≈ 19.9 µM)	0.39 µg/mL (≈ 0.62 µM)	25 µg/mL (≈ 39.8 µM)	12.5 µg/mL (≈ 19.9 µM)	0.78 µg/mL (≈ 1.24 µM)	0.39 µg/mL (≈ 0.62 µM)	0.39 µg/mL (≈ 0.62 µM)	3.13 µg/mL (≈ 4.98 µM)	3.13 µg/mL (≈ 4.98 µM)	25 µg/mL (≈ 39.8 µM)	0.39 µg/mL (≈ 0.62 µM)	0.39 µg/mL (≈ 0.62 µM)	6.25 µg/mL (≈ 9.94 µM)	0.56 µg/mL (≈ 0.891 µM)	6.25 µg/mL (≈ 9.94 µM)	–	–	–	–	–	MIC ([10]; Pseudomonas aeruginosa): 25 µg/mL (≈ 39.8 µM); MIC (Proteus vulgaris 0X 19US; Proteus vulgaris): 6.25 µg/mL (≈ 9.94 µM); MIC (Staphylococcus Onuma; Staphylococcus): 6.25 µg/mL (≈ 9.94 µM)
O=C(O)CSc1nnc(SCC2=C(C(=O)O)N3C(=O)[C@@H](NC(=O)[C@H](NC(=O)c4cnccc4O)c4ccc(O)cc4)[C@H]3SC2)s1 [Example 33, 7-[D-α-(4-hydroxynicotinoylamido)-α-p-hydroxyphenylacetamido]-3-[5-carboxymethylthio-1,3,4-Δ^3-thiadiazol-2-yl]thiomethyl-cephem-4-carboxylic acid]	25 µg/mL (≈ 36.2 µM)	0.78 µg/mL (≈ 1.13 µM)	–	12.5 µg/mL (≈ 18.1 µM)	3.13 µg/mL (≈ 4.53 µM)	–	1.56 µg/mL (≈ 2.26 µM)	25 µg/mL (≈ 36.2 µM)	12.5 µg/mL (≈ 18.1 µM)	3.13 µg/mL (≈ 4.53 µM)	0.78 µg/mL (≈ 1.13 µM)	< 0.09 µg/mL	–	0.39 µg/mL (≈ 0.565 µM)	3.13 µg/mL (≈ 4.53 µM)	3.13 µg/mL (≈ 4.53 µM)	25 µg/mL (≈ 36.2 µM)	25 µg/mL (≈ 36.2 µM)	–	–	MIC (Shigella sonnei II 37148; Shigella sonnei): 3.13 µg/mL (≈ 4.53 µM); MIC ([9]; Shigella flexneri): 3.13 µg/mL (≈ 4.53 µM); MIC (Proteus vulgaris 0X 19US; Proteus vulgaris): 12.5 µg/mL (≈ 18.1 µM)
O=C(O)CCC(=O)Nc1nnc(SCC2=C(C(=O)O)N3C(=O)[C@@H](NC(=O)[C@H](NC(=O)c4csccc4=O)c4ccccc4)[C@H]3SC2)s1 [Example 1, 7-[D-α-(4-oxo-4H-thiopyran-3-ylcarboxamido)-α-phenylacetamido]-3-[5-(3-carboxypropionylamino)-1,3,4-thiadiazol-2-yl]thiomethyl-Δ^3-cephem-4-carboxylic acid]	50 µg/mL (≈ 69.8 µM)	0.39 µg/mL (≈ 0.544 µM)	25 µg/mL (≈ 34.9 µM)	25 µg/mL (≈ 34.9 µM)	1.56 µg/mL (≈ 2.18 µM)	0.78 µg/mL (≈ 1.09 µM)	0.78 µg/mL (≈ 1.09 µM)	–	3.13 µg/mL (≈ 4.37 µM)	–	0.78 µg/mL (≈ 1.09 µM)	0.19 µg/mL (≈ 0.265 µM)	6.25 µg/mL (≈ 8.72 µM)	0.78 µg/mL (≈ 1.09 µM)	–	–	25 µg/mL (≈ 34.9 µM)	–	3.13 µg/mL (≈ 4.37 µM)	0.19 µg/mL (≈ 0.265 µM)	MIC ([5]; Klebsiella pneumoniae): 6.25 µg/mL (≈ 8.72 µM); MIC ([7]; (7) Escherichia coli kauffmann 0-1, read-out: MIC): 25 µg/mL (≈ 34.9 µM); MIC (Staphylococcus Onuma; Staphylococcus): 6.25 µg/mL (≈ 8.72 µM)
Cc1cc(O)c(C(=O)N[C@@H](C(=O)N[C@@H]2C(=O)N3C(C(=O)O)=C(CSc4nnc(SCC(=O)O)s4)CS[C@H]23)c2ccccc2)cn1 [Example 29, 7-[D-α-(4-hydroxy-6-methylnicotinoylamido)-α-phenylacetamido]-3-(5-carboxymethylthio-1,3,4,-thiadiazol-2-yl)thiomethyl-Δ^3-cephem-4-carboxylic acid]	6.25 µg/mL (≈ 9.07 µM)	0.78 µg/mL (≈ 1.13 µM)	3.13 µg/mL (≈ 4.54 µM)	12.5 µg/mL (≈ 18.1 µM)	1.56 µg/mL (≈ 2.26 µM)	–	0.78 µg/mL (≈ 1.13 µM)	6.25 µg/mL (≈ 9.07 µM)	6.25 µg/mL (≈ 9.07 µM)	3.13 µg/mL (≈ 4.54 µM)	0.78 µg/mL (≈ 1.13 µM)	< 0.09 µg/mL	0.78 µg/mL (≈ 1.13 µM)	0.78 µg/mL (≈ 1.13 µM)	–	1.56 µg/mL (≈ 2.26 µM)	12.5 µg/mL (≈ 18.1 µM)	12.5 µg/mL (≈ 18.1 µM)	6.25 µg/mL (≈ 9.07 µM)	12.5 µg/mL (≈ 18.1 µM)	–
O=C(O)Cn1nnnc1SCC1=C(C(=O)O)N2C(=O)[C@@H](NC(=O)[C@H](NC(=O)c3cnccc3O)c3ccccc3)[C@H]2SC1 [Example 15, 7-[D-α-(4-hydroxynicotinoylamido)-α-phenylacetamido]-3-(1-carboxymethyltetrazol-5-yl)-thiomethyl-Δ^3-cephem-4-carboxylic acid]	6.25 µg/mL (≈ 9.97 µM)	0.39 µg/mL (≈ 0.622 µM)	3.13 µg/mL (≈ 4.99 µM)	12.5 µg/mL (≈ 19.9 µM)	3.13 µg/mL (≈ 4.99 µM)	–	0.78 µg/mL (≈ 1.24 µM)	6.25 µg/mL (≈ 9.97 µM)	12.5 µg/mL (≈ 19.9 µM)	6.25 µg/mL (≈ 9.97 µM)	0.39 µg/mL (≈ 0.622 µM)	0.19 µg/mL (≈ 0.303 µM)	3.13 µg/mL (≈ 4.99 µM)	< 0.09 µg/mL	–	3.13 µg/mL (≈ 4.99 µM)	25 µg/mL (≈ 39.9 µM)	25 µg/mL (≈ 39.9 µM)	25 µg/mL (≈ 39.9 µM)	0.39 µg/mL (≈ 0.622 µM)	–
CC(C)(Sc1nnc(SCC2=C(C(=O)O)N3C(=O)[C@@H](NC(=O)[C@H](NC(=O)c4cnccc4O)c4ccccc4)[C@H]3SC2)s1)C(=O)O [Example 22, 7-[D-α-(4-hydroxynicotinoylamido)-α-phenylacetamido]-3-[5-(1-carboxy-1-methylethylthio)-1,3,4-thiadiazol-2-yl]thiomethyl-Δ^3-cephem-4-carboxylic acid]	6.25 µg/mL (≈ 8.89 µM)	0.78 µg/mL (≈ 1.11 µM)	3.13 µg/mL (≈ 4.45 µM)	12.5 µg/mL (≈ 17.8 µM)	3.13 µg/mL (≈ 4.45 µM)	–	0.78 µg/mL (≈ 1.11 µM)	6.25 µg/mL (≈ 8.89 µM)	12.5 µg/mL (≈ 17.8 µM)	3.13 µg/mL (≈ 4.45 µM)	0.39 µg/mL (≈ 0.555 µM)	0.19 µg/mL (≈ 0.27 µM)	1.56 µg/mL (≈ 2.22 µM)	0.39 µg/mL (≈ 0.555 µM)	–	1.56 µg/mL (≈ 2.22 µM)	12.5 µg/mL (≈ 17.8 µM)	12.5 µg/mL (≈ 17.8 µM)	6.25 µg/mL (≈ 8.89 µM)	–	MIC (Proteus vulgaris 0X 19US; Proteus vulgaris): 1.56 µg/mL (≈ 2.22 µM)
CSc1ccc2c(=O)c(C(=O)N[C@@H](C(=O)N[C@@H]3C(=O)N4C(C(=O)O)=C(CSc5nnc(SCC(=O)O)s5)CS[C@H]34)c3ccccc3)c[nH]c2c1 [Example 12, 7-[D-α-(7-methylthio-4-quinolon-3-ylcarboxamido)-α-phenylacetamido]-3-(5-carboxymethylthio-1,3,4-thiadiazol-2yl)thiomethyl-Δ^3-cephem-4-carboxylic acid]	12.5 µg/mL (≈ 16.2 µM)	–	3.13 µg/mL (≈ 4.06 µM)	25 µg/mL (≈ 32.4 µM)	0.19 µg/mL (≈ 0.246 µM)	0.78 µg/mL (≈ 1.01 µM)	0.19 µg/mL (≈ 0.246 µM)	0.39 µg/mL (≈ 0.506 µM)	–	6.25 µg/mL (≈ 8.11 µM)	0.39 µg/mL (≈ 0.506 µM)	0.19 µg/mL (≈ 0.246 µM)	1.56 µg/mL (≈ 2.02 µM)	0.39 µg/mL (≈ 0.506 µM)	3.13 µg/mL (≈ 4.06 µM)	–	25 µg/mL (≈ 32.4 µM)	6.25 µg/mL (≈ 8.11 µM)	–	0.19 µg/mL (≈ 0.246 µM)	MIC ([2]; Bacillus subtilis): 3.13 µg/mL (≈ 4.06 µM); MIC ([6]; Staphylococcus): 3.13 µg/mL (≈ 4.06 µM)
